US12624044B2, “SMARCA degraders and uses thereof” (Kymera Therapeutics, Inc., priority 2019, dated 2026)

Experiments:
[1] = molecular target: SMARCA2 (Homo sapiens, UniProt P51531); experiment: MSD SMARCA2 degradation in A549 cell line; type: cell-based; details: 24 h; for Dmax: A549, A549 cells; for DC50: A549 cells, read-out: SMARCA2 MSD A549 degradation 24 h: Average external-Abs DC50
Outline: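 SMARCA2 remaining was measured by MSD electrochemiluminescence on RIPA lysates (anti-SMARCA2 plus SULFO-TAG anti-rabbit). Prior exposure: 24 h of A549 cells to a 10-point, 3-fold dilution series topping at 1000 nM final; Dmax % given as graded codes.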

[2] = molecular target: T1, SMARCA4 (Homo sapiens, UniProt P51532); experiment: SMARCA4 Western blot MV4-11 degradation; type: cell-based; details: 24 h; for Dmax: MV4-11, MV4-11 cells, read-out: SMARCA4 WB MV411 degradation 24 h: Average Dmax %; for DC50: MV4-11 cells, read-out: SMARCA4 WB MV411 degradation 24 h: Average external-Abs DC50
T1 construct: SMARCA2 and SMARCA4 protein degradation in MV4-11 cells; endogenous in cells; host or cells: MV4-11
Outline: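 MV4-11 cells treated with compound for 24 h, lysed in RIPA with protease/phosphatase inhibitors, and SMARCA2 and SMARCA4 (BRG1) levels assessed by Western blot with β-actin loading control and LI-COR fluorescent read-out. Maximal degradation (Dmax %) after 24 h binned into letter codes.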

Sequence of SMARCA2 (P51531 whole entry): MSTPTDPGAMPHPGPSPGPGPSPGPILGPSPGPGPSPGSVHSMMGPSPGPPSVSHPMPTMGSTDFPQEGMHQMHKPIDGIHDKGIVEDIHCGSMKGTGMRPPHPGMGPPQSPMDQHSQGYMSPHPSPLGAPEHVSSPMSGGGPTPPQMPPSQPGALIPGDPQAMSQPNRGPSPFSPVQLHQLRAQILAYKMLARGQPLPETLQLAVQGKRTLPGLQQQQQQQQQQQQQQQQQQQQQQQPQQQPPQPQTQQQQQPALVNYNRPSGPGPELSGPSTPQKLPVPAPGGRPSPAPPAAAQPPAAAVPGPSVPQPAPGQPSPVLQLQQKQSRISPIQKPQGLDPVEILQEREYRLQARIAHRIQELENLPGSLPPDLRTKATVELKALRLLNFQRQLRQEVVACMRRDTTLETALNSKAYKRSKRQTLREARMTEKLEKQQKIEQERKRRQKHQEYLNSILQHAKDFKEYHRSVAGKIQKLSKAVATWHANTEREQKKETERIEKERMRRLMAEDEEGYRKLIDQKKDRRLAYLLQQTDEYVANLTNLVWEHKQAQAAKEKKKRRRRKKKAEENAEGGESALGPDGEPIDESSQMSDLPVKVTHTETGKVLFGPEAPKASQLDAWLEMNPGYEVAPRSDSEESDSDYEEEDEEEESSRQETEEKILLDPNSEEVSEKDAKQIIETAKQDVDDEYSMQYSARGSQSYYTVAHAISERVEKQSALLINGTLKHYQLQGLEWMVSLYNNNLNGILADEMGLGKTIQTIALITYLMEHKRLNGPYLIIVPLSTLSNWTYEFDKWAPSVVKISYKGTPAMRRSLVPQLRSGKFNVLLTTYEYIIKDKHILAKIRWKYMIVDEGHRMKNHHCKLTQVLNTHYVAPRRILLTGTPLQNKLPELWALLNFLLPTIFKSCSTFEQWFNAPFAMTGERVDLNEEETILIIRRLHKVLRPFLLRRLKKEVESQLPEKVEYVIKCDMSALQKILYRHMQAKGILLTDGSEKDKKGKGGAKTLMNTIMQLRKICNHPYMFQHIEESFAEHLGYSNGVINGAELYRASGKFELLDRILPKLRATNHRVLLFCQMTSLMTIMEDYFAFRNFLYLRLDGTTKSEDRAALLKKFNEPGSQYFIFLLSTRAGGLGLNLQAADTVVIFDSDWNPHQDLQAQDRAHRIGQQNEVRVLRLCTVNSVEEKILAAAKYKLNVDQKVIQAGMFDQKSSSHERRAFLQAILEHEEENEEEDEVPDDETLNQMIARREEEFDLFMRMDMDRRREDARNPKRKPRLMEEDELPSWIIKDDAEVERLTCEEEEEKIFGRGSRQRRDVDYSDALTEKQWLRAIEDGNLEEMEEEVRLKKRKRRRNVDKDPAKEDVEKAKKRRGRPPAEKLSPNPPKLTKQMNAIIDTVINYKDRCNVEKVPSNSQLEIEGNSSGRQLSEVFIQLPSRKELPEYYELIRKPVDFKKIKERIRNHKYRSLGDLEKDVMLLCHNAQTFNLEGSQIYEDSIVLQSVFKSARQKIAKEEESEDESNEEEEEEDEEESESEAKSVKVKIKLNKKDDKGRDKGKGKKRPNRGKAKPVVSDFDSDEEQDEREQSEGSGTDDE
T1 sequence (P51532 whole entry): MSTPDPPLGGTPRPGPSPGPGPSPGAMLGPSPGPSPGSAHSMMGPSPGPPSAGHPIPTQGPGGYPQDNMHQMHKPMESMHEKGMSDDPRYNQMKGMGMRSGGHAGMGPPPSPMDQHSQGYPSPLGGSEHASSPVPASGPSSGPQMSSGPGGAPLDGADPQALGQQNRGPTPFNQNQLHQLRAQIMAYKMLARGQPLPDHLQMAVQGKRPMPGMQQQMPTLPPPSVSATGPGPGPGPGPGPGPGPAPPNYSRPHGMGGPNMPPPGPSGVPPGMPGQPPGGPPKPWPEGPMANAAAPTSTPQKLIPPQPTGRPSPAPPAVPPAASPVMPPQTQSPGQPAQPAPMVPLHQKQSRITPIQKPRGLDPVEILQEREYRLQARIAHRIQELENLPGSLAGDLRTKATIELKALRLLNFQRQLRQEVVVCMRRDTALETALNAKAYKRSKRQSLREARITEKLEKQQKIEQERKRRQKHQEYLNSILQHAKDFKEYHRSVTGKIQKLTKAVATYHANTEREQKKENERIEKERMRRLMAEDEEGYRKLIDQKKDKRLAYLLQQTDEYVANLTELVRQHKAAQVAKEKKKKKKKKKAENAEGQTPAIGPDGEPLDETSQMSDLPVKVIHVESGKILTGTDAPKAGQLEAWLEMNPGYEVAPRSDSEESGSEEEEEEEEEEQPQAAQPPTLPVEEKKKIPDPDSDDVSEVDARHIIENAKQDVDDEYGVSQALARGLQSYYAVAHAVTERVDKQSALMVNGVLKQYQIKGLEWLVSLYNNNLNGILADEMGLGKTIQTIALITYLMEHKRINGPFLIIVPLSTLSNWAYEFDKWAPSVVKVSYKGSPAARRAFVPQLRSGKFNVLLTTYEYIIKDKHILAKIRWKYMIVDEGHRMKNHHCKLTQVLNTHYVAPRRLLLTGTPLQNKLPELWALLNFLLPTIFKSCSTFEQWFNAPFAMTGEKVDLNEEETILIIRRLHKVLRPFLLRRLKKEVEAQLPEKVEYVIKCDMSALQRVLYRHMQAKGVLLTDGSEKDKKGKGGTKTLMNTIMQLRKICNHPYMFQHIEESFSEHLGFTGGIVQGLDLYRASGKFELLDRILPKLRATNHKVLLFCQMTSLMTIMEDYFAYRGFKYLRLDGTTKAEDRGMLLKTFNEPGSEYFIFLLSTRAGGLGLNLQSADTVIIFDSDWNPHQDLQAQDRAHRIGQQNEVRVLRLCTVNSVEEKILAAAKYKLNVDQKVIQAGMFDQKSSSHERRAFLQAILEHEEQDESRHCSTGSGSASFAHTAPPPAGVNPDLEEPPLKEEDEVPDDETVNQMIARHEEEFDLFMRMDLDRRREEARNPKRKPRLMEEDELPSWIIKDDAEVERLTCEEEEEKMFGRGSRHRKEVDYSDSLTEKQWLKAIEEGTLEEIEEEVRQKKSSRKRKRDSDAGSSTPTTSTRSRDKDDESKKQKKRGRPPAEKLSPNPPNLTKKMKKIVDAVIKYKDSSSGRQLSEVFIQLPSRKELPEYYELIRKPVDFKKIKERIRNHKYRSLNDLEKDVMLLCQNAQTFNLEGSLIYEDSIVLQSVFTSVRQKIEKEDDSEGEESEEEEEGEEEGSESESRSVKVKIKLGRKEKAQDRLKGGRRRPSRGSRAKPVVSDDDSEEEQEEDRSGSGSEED

| Structure (SMILES) | Dmax [1] [%] | DC50 [1] [nM] | Dmax [2] [%] | DC50 [2] [nM] |
| --- | --- | --- | --- | --- |
| Cc1ncsc1-c1ccc(CNC(=O)[C@@H]2C[C@@H](O)CN2C(=O)[C@@H](NC(=O)[C@@H]2CCN(Cc3cnc(N4C5CCC4CN(c4cc(-c6ccccc6O)nnc4N)C5)nc3)C2)C(C)(C)C)cc1 [I-386, (2S,4R)-1-((2S)-2-((3R)-1-((2-(3-(3-amino-6-(2-hydroxyphenyl)pyridazin-4-yl)-3,8-diazabicyclo[3.2.1]octan-8-yl)pyrimidin-5-yl)methyl)pyrrolidine-3-carboxamido)-3,3-dimethylbutanoyl)-4-hydroxy-N-(4-(4-methylthiazol-5-yl)benzyl)pyrrolidine-2-carboxamide] | 50 to 70 | 501 to 1000 | > 90 | 100 to 500 |
| Cc1ncsc1-c1ccc(CNC(=O)[C@@H]2C[C@@H](O)CN2C(=O)[C@@H](NC(=O)[C@H]2CCN(Cc3cnc(N4C5CCC4CN(c4cc(-c6ccccc6O)nnc4N)C5)nc3)C2)C(C)(C)C)cc1 [I-387] | < 50 | > 1000 | > 90 | 501 to 1000 |
| Cc1ncsc1-c1ccc(CNC(=O)[C@@H]2C[C@@H](O)CN2C(=O)C(N(C)C(=O)C[C@H]2CC[C@H](N3CCC(c4cnc(N5C6CCC5CN(c5cc(-c7ccccc7O)nnc5N)C6)nc4)CC3)CC2)C(C)(C)C)cc1 (some centres unmarked) [I-388] | > 90 | 100 to 500 | 70 to 90 | < 100 |
| CC(C)(C)[C@H](NC(=O)C1(F)CC1)C(=O)N1C[C@H](O)C[C@H]1C(=O)NCc1ccc(-c2scnc2-c2ccc3cn[nH]c3c2)cc1OCCc1ccc(CN2CCN(c3cc(-c4ccccc4O)nnc3N)CC2)cc1 [I-447, (2S,4R)—N-(4-(4-(1H-indazol-6-yl)thiazol-5-yl)-2-(4-((4-(3-amino-6-(2-hydroxyphenyl)pyridazin-4-yl)piperazin-1-yl)methyl)phenethoxy)benzyl)-1-((S)-2-(1-fluorocyclopropanecarboxamido)-3,3-dimethylbutanoyl)-4-hydroxypyrrolidine-2-carboxamide] | > 90 | 100 to 500 | > 90 | < 100 |
| Cc1ncsc1-c1ccc(CNC(=O)[C@@H]2C[C@@H](O)CN2C(=O)[C@@H](NC(=O)CCCN2CCCC(n3cc(-c4cc(-c5ccccc5O)nnc4N)cn3)C2)C(C)(C)C)cc1 (some centres unmarked) [I-454] | < 50 | > 1000 | < 50 | > 1000 |
| Cc1ncsc1-c1ccc(CNC(=O)[C@@H]2C[C@@H](O)CN2C(=O)[C@@H](NC(=O)CCN2CCN(Cc3ccc(-c4cc(-c5ccccc5O)nnc4N)cc3)CC2)C(C)(C)C)cc1 [I-474] | < 50 | > 1000 | 70 to 90 |  |
| Cc1ncsc1-c1ccc(CNC(=O)[C@@H]2C[C@@H](O)CN2C(=O)[C@@H](NC(=O)CCN2CCC[C@H](Cn3cc(-c4cc(-c5ccccc5O)nnc4N)cn3)C2)C(C)(C)C)cc1 [I-478] | < 50 | > 1000 | < 50 | > 1000 |
| Cc1ncsc1-c1ccc(CNC(=O)[C@@H]2C[C@@H](O)CN2C(=O)[C@@H](NC(=O)CCCCN2CCC[C@H](Cn3cc(-c4cc(-c5ccccc5O)nnc4N)cn3)C2)C(C)(C)C)cc1 [I-480] | < 50 | > 1000 | < 50 | > 1000 |
| Cc1ncsc1-c1ccc(CNC(=O)[C@@H]2C[C@@H](O)CN2C(=O)[C@@H](NC(=O)[C@H](C)N2CCC(c3cnc(N4C5CCC4CN(c4cc(-c6ccccc6O)nnc4N)C5)nc3)CC2)C(C)(C)C)cc1 [I-481] | < 50 | > 1000 | > 90 | > 1000 |
| Cc1ncsc1-c1ccc(CNC(=O)[C@@H]2C[C@@H](O)CN2C(=O)[C@@H](NC(=O)[C@@H](C)N2CCC(c3cnc(N4C5CCC4CN(c4cc(-c6ccccc6O)nnc4N)C5)nc3)CC2)C(C)(C)C)cc1 [I-482] | 70 to 90 | 501 to 1000 | > 90 | > 1000 |
| Cc1ncsc1-c1ccc(CNC(=O)[C@@H]2C[C@@H](O)CN2C(=O)[C@@H](NC(=O)C2CCC(N3CCC(n4cc(-c5cc(-c6ccccc6O)nnc5N)cn4)CC3)CC2)C(C)(C)C)cc1 (some centres unmarked) [I-483] | 70 to 90 | 100 to 500 | < 50 | > 1000 |
| Cc1ncsc1-c1ccc(CNC(=O)[C@@H]2C[C@@H](N)CN2C(=O)[C@@H](NC(=O)CCCNCc2ccc(C#Cc3cc(NC(=O)Nc4cc(F)ncc4CO)ccn3)cc2)C(C)(C)C)cc1 [I-492] | < 50 | > 1000 | < 50 | > 1000 |
| Cc1ncsc1-c1ccc(CNC(=O)[C@@H]2C[C@@H](O)CN2C(=O)[C@@H](NC(=O)CCN(C)CC#Cc2cnc(N3C4CCC3CN(c3cc(-c5ccccc5O)nnc3N)C4)nc2)C(C)(C)C)cc1 [I-496] | 70 to 90 | 501 to 1000 | > 90 | < 100 |
| Cc1ncsc1-c1ccc(CNC(=O)[C@@H]2C[C@@H](O)CN2C(=O)[C@@H](NC(=O)CC2CCC(c3cnc(N4C5CCC4CN(c4cc(-c6ccccc6O)nnc4N)C5)nc3)CC2)C(C)(C)C)cc1 (some centres unmarked) [I-502] | > 90 | < 100 | > 90 | < 100 |
| Cc1ncsc1-c1ccc(CNC(=O)[C@@H]2C[C@@H](O)CN2C(=O)[C@@H](NC(=O)C2CCC(CCCCCN3CCC(Cn4cc(-c5cc(-c6ccccc6O)nnc5N)cn4)CC3)CC2)C(C)(C)C)cc1 (some centres unmarked) [I-504] | > 90 | 100 to 500 | > 90 | 100 to 500 |
| Cc1ncsc1-c1ccc(CNC(=O)[C@@H]2C[C@@H](O)CN2C(=O)[C@@H](NC(=O)c2ccc(CCCCCN3CCC(Cn4cc(-c5cc(-c6ccccc6O)nnc5N)cn4)CC3)cc2)C(C)(C)C)cc1 [I-505] | > 90 | 100 to 500 | > 90 | 100 to 500 |
| Cc1ncsc1-c1ccc(CNC(=O)[C@@H]2C[C@@H](O)CN2C(=O)[C@@H](NC(=O)c2ccc(C#CCCCN3CCC(Cn4cc(-c5cc(-c6ccccc6O)nnc5N)cn4)CC3)cc2)C(C)(C)C)cc1 [I-506] | > 90 | 100 to 500 | > 90 | < 100 |
| Cc1ncsc1-c1ccc(CNC(=O)[C@@H]2C[C@@H](O)CN2C(=O)[C@@H](NC(=O)c2ccc(-c3ccc(CN4CCC(Cn5cc(-c6cc(-c7ccccc7O)nnc6N)cn5)CC4)cc3)cc2)C(C)(C)C)cc1 [I-507] | > 90 | < 100 | > 90 | < 100 |
| Cc1ncsc1-c1ccc(CNC(=O)[C@@H]2C[C@@H](O)CN2C(=O)[C@@H](NC(=O)Cc2ccc(-c3ccc(N4CCC(Cn5cc(-c6cc(-c7ccccc7O)nnc6N)cn5)CC4)cc3)cc2)C(C)(C)C)cc1 [I-508] | < 50 | > 1000 | < 50 | > 1000 |
| Cc1ncsc1-c1ccc(CNC(=O)[C@@H]2C[C@@H](O)CN2C(=O)[C@@H](NC(=O)CC2CCC(N3CCC(c4cnc(N5C6CCC5CN(c5cc(-c7ccccc7O)nnc5N)C6)nc4)CC3)CC2)C(C)(C)C)cc1 (some centres unmarked) [I-511] | > 90 | 100 to 500 | > 90 | < 100 |
| Cc1ncsc1-c1ccc(CNC(=O)[C@@H]2C[C@@H](O)CN2C(=O)[C@@H](NC(=O)CC2CC(N3CCC(c4cnc(N5C6CCC5CN(c5cc(-c7ccccc7O)nnc5N)C6)nc4)CC3)C2)C(C)(C)C)cc1 (some centres unmarked) [I-512] | 70 to 90 | 100 to 500 | < 50 | > 1000 |
| Cc1ncsc1-c1ccc(CNC(=O)[C@@H]2C[C@@H](O)CN2C(=O)[C@@H](NC(=O)Cc2ccc(N3CCC(c4cnc(N5C6CCC5CN(c5cc(-c7ccccc7O)nnc5N)C6)nc4)CC3)cc2)C(C)(C)C)cc1 [I-513] | 70 to 90 | 501 to 1000 | 70 to 90 | 100 to 500 |
| Cc1ncsc1-c1ccc(CNC(=O)[C@@H]2C[C@@H](O)CN2C(=O)[C@@H](NC(=O)c2ccc(N3CCC(n4cc(-c5cc(-c6ccccc6O)nnc5N)cn4)CC3)cc2)C(C)(C)C)cc1 [I-515] | < 50 | > 1000 | > 90 | < 100 |
| Cc1ncsc1-c1ccc(CNC(=O)[C@@H]2C[C@@H](O)CN2C(=O)[C@@H](NC(=O)Cc2ccc(N3CCC(n4cc(-c5cc(-c6ccccc6O)nnc5N)cn4)CC3)cc2)C(C)(C)C)cc1 [I-516] | < 50 | > 1000 | < 50 | > 1000 |
| Cc1ncsc1-c1ccc(CNC(=O)[C@@H]2C[C@@H](O)CN2C(=O)[C@@H](NC(=O)C2(F)CC2)C2CCC(N(C)CCCc3cnc(N4C5CCC4CN(c4cc(-c6ccccc6O)nnc4N)C5)nc3)CC2)cc1 (some centres unmarked) [I-518] | < 50 | > 1000 | 50 to 70 | 100 to 500 |
| Cc1cc(-c2scnc2C)ccc1CNC(=O)[C@@H]1C[C@@H](O)CN1C(=O)[C@@H](NC(=O)CN1CCC(c2cnc(N3C4CCC3CN(c3cc(-c5ccccc5O)nnc3N)C4)nc2)CC1)C(C)(C)C [I-521] | > 90 | 100 to 500 | > 90 | 100 to 500 |
| Nc1nnc(-c2ccccc2O)cc1N1CC2CCC(C1)N2c1ncc(C2CCN(CCCNC(=O)COc3ccc4c(c3)CCCN4C(=O)CCl)CC2)cn1 [I-523, N-[3-[4-[2-[3-[3-amino-6-(2-hydroxyphenyl)pyridazin-4-yl]-3,8-diazabicyclo[3.2.1]octan-8-yl]pyrimidin-5-yl]-1-piperidyl]propyl]-2-[[1-(2-chloroacetyl)-3,4-dihydro-2H-quinolin-6-yl]oxy]acetamide] | < 50 | > 1000 | > 90 | > 1000 |
